Data from patent US9945863B2, “Coiled coil helix cristae morphology 1 (CHCM1) tumor marker and cancer therapeutic target” (The Research Foundation of State University of New York, priority 2012, dated 2018).

Columns and labels:
CHCM1/CHCHD6 mRNA [1] = assay: Northern blot of CHCM1/CHCHD6 mRNA after genotoxic drug treatment; format: cell-based, human
Procedure: (§1) Northern blot analyses were done according to standard procedure (23, 24). Briefly, total RNA was extracted by Trizol reagent (Invitrogen, Carlsbad, Calif.) and ˜15 μg of total RNA were size-separated on 1.2% agarose gel and transferred to nylon membrane (Whatman, GE Health care, Piscataway, N.J.). Human CHCM1/CHCHD6 cDNA probe was labeled with ^32P and hybridization was performed in QuikHyb solution (Stratagene, La Jolla, Calif.) at 65° C.

[2] = system: CHCM1/CHCHD6 protein levels; assay: Western blot of CHCM1/CHCHD6 protein levels after drug treatment; format: cell-based, human
Procedure: (§2) Western blotting and immunoprecipitations were done by standard procedures as previously described (25, 26). S-tag pull down experiments were performed using human cancer cells as well as bacterial lysates. Cell pellets were prepared and lysed in lysis buffer (50 mM Tris-HCl, pH 7.4, 120 mM NaCl, 0.1% NP-40, 10 mM NaF, 5 mM EDTA, 2 mM Na3VO4, 2 mM MgCl2, 10 mM KCl, 25 mM glycerophosphate, protease inhibitor cocktail, okadic acid and 1 mM PMSF) and S-tag pull down was performed by using S-protein agarose beads (Novagen, EMD Chemicals Group, Darmstadt, Germany) according to manufacturer's protocol. For S-tag pull down using bacterial lysates, wild type and deletion variants of S-tagged CHCM1/CHCHD6 were expressed in E. coli BL21 (DE3) and induced by 1 mM IPTG (isopropyl-1-thio-β-D-galactopyranoside) at 30° C. for 6 hr. Bacteria were lysed in a buffer containing 28 mM Tris, 135 mM NaCl, 1 mM dithiothreitol (DTT), 1% Triton-X 100 (w/v), protease inhibitor cocktail and 400 μg/ml […] for 30 min at room temperature, followed by 26,000×g centrifugation for 30 min (Sorvall RC5C Plus) and S-tag pull down was done according to manufacturer's protocol. GST-tagged Mitofilin was expressed in bacteria and gel-purified as previously described (27).

[3] = system: MDA231 and SK-Mel-103 cells; assay: MTT assay, chemosensitivity of CHCM1/CHCHD6 knockdown cells; format: cell-based, human; settings: Adria 3 μM for MDA231, 1 μM for SK-Mel-103, 24 hr; knockdown vs scramble (FIG. 6A)
Excerpt: (§3) Endogenous CHCM1/CHCHD6 and Mitofilin were knocked-down by lentiviral shRNA-mediated approach (28). The pLKO.1 lentiviral vectors containing the scrambled or CHCM1/CHCHD6-specific shRNAs or Mitofilin-specific shRNAs were generated by The RNA interference Consortium and purchased from Open Biosystems (Huntsville, Ala.). Lentiviruses were produced and titered according to the supplier's protocols. In all experiments, the multiplicity of infection (M.O.I.) was 1.0. Five shRNAs to target five different regions of CHCM1/CHCHD6 were used. Artificial DNA sequences coding for shRNAs are as follows. The first part of the sequence is in sense orientation then loop (underlined) followed by antisense sequence:
(§4) MTT powder (MTT, Methylthiazolyldiphenyl-tetrazolium bromide, available from Sigma-Aldrich, St. Louis, Mo., Cat. No. M2128) was dissolved in DMEM without fetal bovine serum and phenol red to a final concentration of 1 mg/ml and then added to cells and incubated for ˜1-4 hrs depending on cell confluency. Medium was then removed and equal volume of isopropanol with 0.04N HCl was added to dissolve the precipitate. Finally, absorbance was read at 570 nm wavelength subtracting background reading at 650 nm wavelength with a Bio-Rad Smart-Spec 3100 instrument.

[4] = system: RKO cells stably expressing exogenous CHCM1/CHCHD6; assay: MTT assay, chemosensitivity of cells stably overexpressing CHCM1/CHCHD6; format: cell-based, human; settings: etoposide 30 μM for 48 hr; clones C3 and C4 vs vector (FIG. 6B)
Excerpt: For stable transfections, expression vector pcDNA3.1 carrying HA/S-tagged CHCM1/CHCHD6 was used. The same vector without CHCM1/CHCHD6 insert was used for control transfection. RKO human colon cancer cells were transfected with these vectors using Lipofectamine 2000 (Invitrogen, Carlsbad, Calif.) and G418-resisitant colonies selected after approximately 2 weeks. Several independent colonies were picked up and expanded into mass culture and screened for the expression of exogenous CHCM1/CHCHD6. Several vector-only transfected colonies were also isolated, pooled and expanded into mass culture. CHCM1/CHCHD6 expressing clones B4, C3 and C4 were selected for further studies.
as §4

CHCM1/CHCHD6 mRNA [5] = assay: Lentiviral shRNA knockdown of endogenous CHCM1/CHCHD6 (Northern and Western blot); format: cell-based; settings: RKO human colon and MCF-7 breast cancer cells; M.O.I. 1.0 (FIG. 5A)
Procedure: as §1, §2
as §3, with “sequence: […]” for “sequence:”

[6] = system: RKO, MCF7 and MDA231 cell lines; assay: MTT assay, cell growth in CHCM1/CHCHD6 knockdown cells; format: cell-based, human; settings: knockdown vs scramble, MCF7, MDA231 (FIG. 5B)
Excerpt: as §3, §4

melanoma cells = assay: MTT assay, cell growth in CHCM1 knockdown melanoma cells; format: cell-based, human; settings: knockdown vs scramble; melanoma cells (FIG. 24)
Excerpt: as §3, §4

RKO cells [7] = assay: Transmission electron microscopy of mitochondrial cristae, RKO; format: cell-based, human; settings: CHCM1/CHCHD6 knockdown
Excerpt: as §3
Scramble and CHCM1/CHCHD6 knockdown cells were harvested and fixed by Ito and Karnovsky's fixative (2.5% glutaraldehyde, 2% paraformaldehyde in 0.1 M cacodylate buffer, pH 7.4) at 4° C. overnight (29). The next day cells were rinsed with 0.1 M cacodylate buffer for 5 times, 5 min each. After fixing with 1% osmium tetroxide in 0.1 M cacodylate buffer for 1 hr on ice, the samples were rinsed with double-distilled H2O for 3 times, 8 min each and later fixed with 1% Tannic acid for 1 hr. After rinsing with double-distilled H2O for additional 3 times 8 min each, samples were dehydrated and embedded into Poly/Bed® 812 according to the protocol of Poly/Bed® 812 BDMA Mini-kit (Polyscience, Inc., Warrington, Pa.). Poly/Bed®-embedded cells were cut into 80-90 nm ultrathin serial sections by a diamond knife-DIATOME 45 degree (Diatome U S, Hatfield, Pa.). Sections were supported on nickel grids/200 mesh (Electron Microscopy Sciences, Hatfield, Pa.) and post-stained in 4% uranyl acetate and 4% lead citrate. Finally sections were observed under Tecnai™ Transmission Electron Microscope (BioTwin lens) with Advantage Plus CCD Camera System at an 80.0-kV acceleration voltage.

MCF7 cells = assay: Transmission electron microscopy of mitochondrial cristae, MCF7; format: cell-based, human; settings: CHCM1/CHCHD6 knockdown
Excerpt: as §3
Scramble and CHCM1/CHCHD6 knockdown cells were harvested and fixed by Ito and Karnovsky's fixative (2.5% glutaraldehyde, 2% paraformaldehyde in 0.1 M cacodylate buffer, pH 7.4) at 4° C. overnight (29). The next day cells were rinsed with 0.1 M cacodylate buffer for 5 times, 5 min each. After fixing with 1% osmium tetroxide in 0.1 M cacodylate buffer for 1 hr on ice, the samples were rinsed with double-distilled H2O for 3 times, 8 min each and later fixed with 1% Tannic acid for 1 hr. […]

RKO cells [8] = assay: Mitochondrial ATP synthesis assay (luciferase-based); format: cell-based, human; settings: RKO knockdown vs scramble cells; p<0.05 (FIG. 11A)
Procedure: Mitochondrial ATP synthesis assay was performed as reported previously (30). Briefly, CHCM1/CHCHD6 knockdown or scramble knockdown RKO cells were harvested, washed with glucose-free, serum free DMEM. Each sample with approximately 1.5×10^6 cells were re-suspended and incubated in 160 μl of buffer A (150 mM KCl, 25 mM Tris-HCl, 2 mM EDTA, 0.1% BSA, 10 mM potassium phosphate, pH 7.4, 0.1 mM MgCl2) with digitonin (40 μg/ml final concentration) for 1 min at room temperature. After a wash with buffer A, cells were centrifuged at 800×g at room temperature and pellets were re-suspended in 160 μl buffer A containing P^1, P^5-di (adenosine) pentaphosphate (0.15 mM). Subsequently, 10 μl of buffer B (0.5 M Tris-acetate, pH 7.75, 0.8 mM luciferin, 20 μg/ml luciferase), ADP (to 0.1 mM), malate and pyruvate (both to 1 mM) were added to the cell suspension. Oligomycin (1 μg/ml) was also added to one replicate of each sample prepared as above. Cells were transferred to a luminometer glass tubes and gently mixed with a vortex for 2 sec. Tubes were then placed in a luminometer (LUMAT LB 9507, Berthold Technologies, Germany) and light emission was recorded in the kinetic mode. The integration time for each reading was 1 sec. Interval between readings was 15 sec and a total recording time was 4 min. Finally, total cellular protein content of each sample was determined.

RKO cells [9] = assay: Oxygen consumption rate measurement; format: cell-based, human; settings: RKO knockdown vs scramble cells; p<0.05 (FIG. 11B)
Procedure: Intact cell oxygen consumption rate was measured by an Oxygraph system with DW1 Oxygen Electrode (Hansatech Instruments Ltd., Norfolk, U. K.) as described previously (30). Briefly, RKO cells with CHCM1/CHCHD6 knockdown or scramble knockdown were harvested by trypsinization and centrifugation at 2500 rpm. Approximately 1.5×10^6 cells were re-suspended in 300 μl growth medium for each sample and injected into the polarographic chamber for the intact cell-coupled oxygen consumption rate.

[10] = RKO human colon cancer cells, ADRIAMYCIN 0.5 μM (FIG. 4B)
[11] = multiple human cancer cell lines, etoposide 30 μM, ADRIAMYCIN 1.0 μM, 24 hr (FIG. 4C)
[12] = various human breast cancer cell lines (FIG. 23)
[13] = RKO cells, respiratory chain inhibitors, 24 hr or antimycin A 1 μg/ml, rotenone 0.1 μg/ml for various time points (FIGS. 12A-B)

Molecule: COc1cccc2c1C(=O)c1c(O)c3c(c(O)c1C2=O)C[C@@](O)(C(=O)CO)C[C@@H]3O[C@H]1C[C@H](N)[C@H](O)[C@H](C)O1 [ADRIAMYCIN®, doxorubicin]
- time by which CHCM1/CHCHD6 mRNA expression was reduced (CHCM1/CHCHD6 mRNA [1]; [10]): ≤ 12 h
- time post-treatment until which mRNA down-regulation was maintained (CHCM1/CHCHD6 mRNA [1]; [10]): 60 h
- CHCM1/CHCHD6 protein levels [2, 11]: down-regulated
- CHCM1 protein level [2, 12]: down-regulate
- drug-mediated chemosensitivity in CHCM1/CHCHD6 knockdown cells (cell viability, MTT) [3]: further increased

Molecule: N.N.[Cl][Pt][Cl] [Cisplatin]
- CHCM1 protein level ([2]; UACC-62 melanoma cells, 24 hrs (FIG. 22)): downregulates

Molecule: COc1cc([C@@H]2c3cc4c(cc3[C@@H](O[C@@H]3O[C@@H]5CO[C@@H](C)O[C@H]5[C@H](O)[C@H]3O)[C@H]3COC(=O)[C@H]23)OCO4)cc(OC)c1O [etoposide]
- CHCM1/CHCHD6 mRNA expression (CHCM1/CHCHD6 mRNA [1]; multiple human cancer cell lines, etoposide 30 μM for 24 hr, Northern blot (FIG. 4A)): strongly down-regulated
- CHCM1/CHCHD6 protein levels [2, 11]: down-regulated
- CHCM1 protein level [2, 12]: down-regulate
- drug-mediated chemosensitivity in CHCM1/CHCHD6 knockdown cells (cell viability, MTT) [3]: further increased
- etoposide-mediated chemosensitivity in cells overexpressing CHCM1/CHCHD6 (cell viability, MTT) [4]: reduced

Molecule: C=C(C)[C@H]1Cc2c(ccc3c2O[C@@H]2COc4cc(OC)c(OC)cc4[C@@H]2C3=O)O1 [rotenone]
- CHCM1/CHCHD6 protein levels [2, 13]: did not appreciably affect

Molecule: G4: lentiviral pLKO.1 CHCM1/CHCHD6-specific shRNA, SEQ ID NO: 3 (GAGCGTATTGAGAGGAAGAATCTCGAGATTCTTCCTCTCAATACGCTCT)
- knockdown of endogenous CHCM1/CHCHD6 at mRNA and protein levels (CHCM1/CHCHD6 mRNA [5]): effectively knocked down
- cell growth (MTT) [6]: reduces cell growth
- cell growth (MTT) (melanoma cells): growth inhibition
- Abnormal Mitochondria devoid or nearly devoid of cristae structures, Experiment 1 (RKO cells [7]): 17.8%
- Abnormal Mitochondria devoid or nearly devoid of cristae structures, Experiment 1 (MCF7 cells): 58.3%
- cellular ATP production (RKO cells [8]): affects cellular ATP production
- oxygen consumption rate (RKO cells [9]): affects oxygen consumption rate

Molecule: G5: lentiviral pLKO.1 CHCM1/CHCHD6-specific shRNA, SEQ ID NO: 4 (CCTGAAGAAGGGACCAATCATCTCGAGATGATTGGTCCCTTCTTCAGGT)
- knockdown of endogenous CHCM1/CHCHD6 at mRNA and protein levels (CHCM1/CHCHD6 mRNA [5]): effectively knocked down

Molecule: G6: lentiviral pLKO.1 CHCM1/CHCHD6-specific shRNA, SEQ ID NO: 5 (GCATGCTGCTATCCAGGATAACTCGAGTTATCCTGGATAGCAGCATGCT)
- knockdown of endogenous CHCM1/CHCHD6 at mRNA and protein levels (CHCM1/CHCHD6 mRNA [5]): effectively knocked down

Molecule: G7: lentiviral pLKO.1 CHCM1/CHCHD6-specific shRNA, SEQ ID NO: 6 (CTTTGGCCTTCAAGATGGCAACTCGAGTTGCCATCTTGAAGGCCAAAGT)
- knockdown of endogenous CHCM1/CHCHD6 at mRNA and protein levels (CHCM1/CHCHD6 mRNA [5]): effectively knocked down

Molecule: G8: lentiviral pLKO.1 CHCM1/CHCHD6-specific shRNA, SEQ ID NO: 7 (GCTGAGATGTATAAACTGTCTCTCGAGAGACAGTTTATACATCTCAGCT)
- knockdown of endogenous CHCM1/CHCHD6 at mRNA and protein levels (CHCM1/CHCHD6 mRNA [5]): effectively knocked down
- cell growth (MTT) [6]: reduces cell growth
- cell growth (MTT) (melanoma cells): growth inhibition
- Abnormal Mitochondria devoid or nearly devoid of cristae structures, Experiment 1 (RKO cells [7]): 55.6%
- Abnormal Mitochondria devoid or nearly devoid of cristae structures, Experiment 2 (RKO cells [7]): 70.5% (74/105)
- Abnormal Mitochondria devoid or nearly devoid of cristae structures, Experiment 1 (MCF7 cells): 65.2%
- cellular ATP production (RKO cells [8]): affects cellular ATP production
- oxygen consumption rate (RKO cells [9]): affects oxygen consumption rate

Molecule: antimycin A
- CHCM1/CHCHD6 protein levels [2, 13]: did not appreciably affect
